Data from the kinase profiling compilation of Christmann-Franck et al. (2016).

Columns and labels:
Assay in all cases: KINOMEscan competition binding
Details in all cases: compound 10.0 µM
CAMKK2 (human) = CAMKK2 (human) (UniProt Q96RR4)
CDK16 (human) = CDK16 (human) (UniProt Q00536)
HCK (human) = HCK (human) (UniProt P08631)
CIT (human) = CIT (human) (UniProt O14578)
FGFR1 (human) = FGFR1 (human) (UniProt P11362)
ERBB4 (human) = ERBB4 (human) (UniProt Q15303)
MARK4 (human) = MARK4 (human) (UniProt Q96L34)
LCK (human) = LCK (human) (UniProt P06239)
IRAK3 (human) = IRAK3 (human) (UniProt Q9Y616)
MAPK7 (human) = MAPK7 (human) (UniProt Q13164)
TSSK1B (human) = TSSK1B (human) (UniProt Q9BXA7)
PTK6 (human) = PTK6 (human) (UniProt Q13882)
CHEK1 (human) = CHEK1 (human) (UniProt O14757)
FER (human) = FER (human) (UniProt P16591)
FER (human), sequence (P16591 whole entry, looked up): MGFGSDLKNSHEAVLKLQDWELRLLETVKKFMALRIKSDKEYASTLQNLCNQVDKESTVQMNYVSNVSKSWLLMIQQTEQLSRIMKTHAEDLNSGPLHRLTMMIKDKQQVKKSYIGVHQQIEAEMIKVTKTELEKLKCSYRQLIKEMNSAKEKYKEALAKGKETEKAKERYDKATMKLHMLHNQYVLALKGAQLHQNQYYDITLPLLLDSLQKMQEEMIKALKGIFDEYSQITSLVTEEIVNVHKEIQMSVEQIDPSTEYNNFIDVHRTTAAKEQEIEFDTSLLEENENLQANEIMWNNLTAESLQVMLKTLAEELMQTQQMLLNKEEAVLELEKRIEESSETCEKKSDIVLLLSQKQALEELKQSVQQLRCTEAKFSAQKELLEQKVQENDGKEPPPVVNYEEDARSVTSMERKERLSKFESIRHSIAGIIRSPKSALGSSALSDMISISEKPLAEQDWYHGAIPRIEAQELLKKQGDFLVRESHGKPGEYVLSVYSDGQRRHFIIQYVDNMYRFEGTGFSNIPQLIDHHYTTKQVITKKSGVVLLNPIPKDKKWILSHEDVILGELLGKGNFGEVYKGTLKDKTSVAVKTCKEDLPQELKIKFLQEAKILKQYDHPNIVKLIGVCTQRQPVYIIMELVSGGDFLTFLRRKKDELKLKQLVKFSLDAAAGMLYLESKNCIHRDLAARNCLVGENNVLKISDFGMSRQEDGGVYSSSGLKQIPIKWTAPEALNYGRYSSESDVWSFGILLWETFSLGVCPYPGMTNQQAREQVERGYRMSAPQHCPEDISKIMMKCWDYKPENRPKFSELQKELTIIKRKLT

NEK1 (human) = NEK1 (human) (UniProt Q96PY6)
NEK1 (human), sequence (Q96PY6 whole entry, looked up): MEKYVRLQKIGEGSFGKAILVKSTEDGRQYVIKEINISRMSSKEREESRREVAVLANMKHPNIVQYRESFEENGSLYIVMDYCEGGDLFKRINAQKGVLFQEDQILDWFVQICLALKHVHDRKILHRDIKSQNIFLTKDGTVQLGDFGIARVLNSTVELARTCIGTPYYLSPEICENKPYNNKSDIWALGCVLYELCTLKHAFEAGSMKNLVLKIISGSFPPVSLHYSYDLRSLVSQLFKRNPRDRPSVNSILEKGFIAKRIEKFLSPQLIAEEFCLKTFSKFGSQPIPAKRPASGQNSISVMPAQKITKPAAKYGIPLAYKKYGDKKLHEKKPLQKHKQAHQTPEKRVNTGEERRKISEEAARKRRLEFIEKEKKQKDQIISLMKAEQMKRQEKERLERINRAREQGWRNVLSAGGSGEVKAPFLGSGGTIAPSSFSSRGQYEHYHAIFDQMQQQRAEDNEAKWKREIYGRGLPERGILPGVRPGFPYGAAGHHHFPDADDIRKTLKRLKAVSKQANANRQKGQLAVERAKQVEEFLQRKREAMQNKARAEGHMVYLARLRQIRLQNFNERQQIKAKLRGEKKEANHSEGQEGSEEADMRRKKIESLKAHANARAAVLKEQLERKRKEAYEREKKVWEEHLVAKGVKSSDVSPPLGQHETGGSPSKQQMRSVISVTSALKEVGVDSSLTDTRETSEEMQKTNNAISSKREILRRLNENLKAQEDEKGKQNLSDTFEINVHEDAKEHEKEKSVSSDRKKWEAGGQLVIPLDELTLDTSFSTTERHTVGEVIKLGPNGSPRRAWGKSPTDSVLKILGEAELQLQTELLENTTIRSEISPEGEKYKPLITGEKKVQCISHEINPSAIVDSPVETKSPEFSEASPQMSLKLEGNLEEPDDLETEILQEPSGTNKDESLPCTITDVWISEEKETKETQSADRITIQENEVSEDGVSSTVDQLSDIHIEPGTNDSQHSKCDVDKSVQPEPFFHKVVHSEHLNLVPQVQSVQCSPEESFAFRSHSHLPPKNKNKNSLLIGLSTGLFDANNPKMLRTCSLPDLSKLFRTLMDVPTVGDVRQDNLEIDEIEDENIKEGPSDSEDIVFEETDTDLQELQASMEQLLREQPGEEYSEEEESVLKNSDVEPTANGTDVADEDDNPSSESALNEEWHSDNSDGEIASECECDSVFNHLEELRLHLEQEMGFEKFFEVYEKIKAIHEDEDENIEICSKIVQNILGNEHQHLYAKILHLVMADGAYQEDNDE

EPHA4 (human) = EPHA4 (human) (UniProt P54764)
TLK2 (human) = TLK2 (human) (UniProt Q86UE8)
RAF1 (human) = RAF1 (human) (UniProt P04049)
RAF1 (human), sequence (P04049 whole entry, looked up): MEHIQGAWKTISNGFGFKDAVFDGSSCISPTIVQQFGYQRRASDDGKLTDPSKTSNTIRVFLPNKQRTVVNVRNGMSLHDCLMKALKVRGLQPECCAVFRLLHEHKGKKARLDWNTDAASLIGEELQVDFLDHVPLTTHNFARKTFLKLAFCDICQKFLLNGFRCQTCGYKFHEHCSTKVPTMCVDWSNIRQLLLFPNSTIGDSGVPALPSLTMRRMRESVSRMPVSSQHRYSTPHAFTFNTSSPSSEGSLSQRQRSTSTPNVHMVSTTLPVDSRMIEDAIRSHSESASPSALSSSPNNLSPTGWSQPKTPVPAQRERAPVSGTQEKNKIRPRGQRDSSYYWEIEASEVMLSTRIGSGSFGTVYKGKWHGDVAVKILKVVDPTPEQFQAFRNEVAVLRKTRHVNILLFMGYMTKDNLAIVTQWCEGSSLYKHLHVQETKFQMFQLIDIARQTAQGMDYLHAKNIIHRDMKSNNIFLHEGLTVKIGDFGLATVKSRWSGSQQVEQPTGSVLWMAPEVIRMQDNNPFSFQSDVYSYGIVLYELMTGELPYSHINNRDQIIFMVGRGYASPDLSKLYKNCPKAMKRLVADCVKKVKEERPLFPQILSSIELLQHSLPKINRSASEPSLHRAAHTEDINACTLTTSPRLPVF

ADCK4 (human) = ADCK4 (human) (UniProt Q96D53)
ADCK4 (human), sequence (Q96D53 whole entry, looked up): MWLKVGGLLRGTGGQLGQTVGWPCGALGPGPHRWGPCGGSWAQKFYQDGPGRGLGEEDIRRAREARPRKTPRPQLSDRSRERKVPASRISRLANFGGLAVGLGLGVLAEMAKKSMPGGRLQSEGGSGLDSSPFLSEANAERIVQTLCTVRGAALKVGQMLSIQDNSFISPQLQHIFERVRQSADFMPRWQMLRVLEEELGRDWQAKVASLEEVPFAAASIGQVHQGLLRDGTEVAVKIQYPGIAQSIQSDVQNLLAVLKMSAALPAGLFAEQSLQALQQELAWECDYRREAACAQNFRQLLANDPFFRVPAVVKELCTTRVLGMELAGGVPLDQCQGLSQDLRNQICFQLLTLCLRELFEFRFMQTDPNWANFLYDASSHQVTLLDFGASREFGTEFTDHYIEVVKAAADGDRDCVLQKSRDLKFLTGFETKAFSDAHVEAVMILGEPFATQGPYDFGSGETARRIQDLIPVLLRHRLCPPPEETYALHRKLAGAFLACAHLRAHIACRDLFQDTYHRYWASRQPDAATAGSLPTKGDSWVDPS

HIPK1 (human) = HIPK1 (human) (UniProt Q86Z02)
CAMK2D (human) = CAMK2D (human) (UniProt Q13557)
CSF1R (human) = CSF1R (human) (UniProt P07333)
[1] = system: FLT3 (human), P36888 [ITD]
STK11 (human) = STK11 (human) (UniProt Q15831)
STK11 (human), sequence (Q15831 whole entry, looked up): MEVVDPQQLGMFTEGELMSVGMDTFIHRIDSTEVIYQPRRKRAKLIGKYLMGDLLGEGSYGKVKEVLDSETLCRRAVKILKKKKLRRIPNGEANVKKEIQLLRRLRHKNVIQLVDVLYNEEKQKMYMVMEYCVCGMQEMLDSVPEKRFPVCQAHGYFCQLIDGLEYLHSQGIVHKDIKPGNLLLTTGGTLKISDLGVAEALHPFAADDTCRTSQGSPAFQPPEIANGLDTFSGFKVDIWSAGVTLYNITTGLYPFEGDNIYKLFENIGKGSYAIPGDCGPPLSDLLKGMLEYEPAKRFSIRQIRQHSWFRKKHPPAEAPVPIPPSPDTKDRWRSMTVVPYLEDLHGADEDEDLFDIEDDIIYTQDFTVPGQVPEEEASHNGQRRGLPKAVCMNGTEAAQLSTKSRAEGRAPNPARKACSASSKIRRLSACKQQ

PDGFRA (human) = PDGFRA (human) (UniProt P16234)
PRKACB (human) = PRKACB (human) (UniProt P22694)
CLK2 (human) = CLK2 (human) (UniProt P49760)
INSR (human) = INSR (human) (UniProt P06213)
NEK6 (human) = NEK6 (human) (UniProt Q9HC98)
LIMK2 (human) = LIMK2 (human) (UniProt P53671)
PAK2 (human) = PAK2 (human) (UniProt Q13177)
MYLK (human) = MYLK (human) (UniProt Q15746)
MINK1 (human) = MINK1 (human) (UniProt Q8N4C8)
CAMK4 (human) = CAMK4 (human) (UniProt Q16566)
ALK (human) = ALK (human) (UniProt Q9UM73)
PLK4 (human) = PLK4 (human) (UniProt O00444)
MAP3K9 (human) = MAP3K9 (human) (UniProt P80192)
MAP3K7 (human) = MAP3K7 (human) (UniProt O43318)
MERTK (human) = MERTK (human) (UniProt Q12866)
MAPK14 (human) = MAPK14 (human) (UniProt Q16539)
CSNK1D (human) = CSNK1D (human) (UniProt P48730)

FGFR1 (human), sequence (P11362 whole entry, looked up): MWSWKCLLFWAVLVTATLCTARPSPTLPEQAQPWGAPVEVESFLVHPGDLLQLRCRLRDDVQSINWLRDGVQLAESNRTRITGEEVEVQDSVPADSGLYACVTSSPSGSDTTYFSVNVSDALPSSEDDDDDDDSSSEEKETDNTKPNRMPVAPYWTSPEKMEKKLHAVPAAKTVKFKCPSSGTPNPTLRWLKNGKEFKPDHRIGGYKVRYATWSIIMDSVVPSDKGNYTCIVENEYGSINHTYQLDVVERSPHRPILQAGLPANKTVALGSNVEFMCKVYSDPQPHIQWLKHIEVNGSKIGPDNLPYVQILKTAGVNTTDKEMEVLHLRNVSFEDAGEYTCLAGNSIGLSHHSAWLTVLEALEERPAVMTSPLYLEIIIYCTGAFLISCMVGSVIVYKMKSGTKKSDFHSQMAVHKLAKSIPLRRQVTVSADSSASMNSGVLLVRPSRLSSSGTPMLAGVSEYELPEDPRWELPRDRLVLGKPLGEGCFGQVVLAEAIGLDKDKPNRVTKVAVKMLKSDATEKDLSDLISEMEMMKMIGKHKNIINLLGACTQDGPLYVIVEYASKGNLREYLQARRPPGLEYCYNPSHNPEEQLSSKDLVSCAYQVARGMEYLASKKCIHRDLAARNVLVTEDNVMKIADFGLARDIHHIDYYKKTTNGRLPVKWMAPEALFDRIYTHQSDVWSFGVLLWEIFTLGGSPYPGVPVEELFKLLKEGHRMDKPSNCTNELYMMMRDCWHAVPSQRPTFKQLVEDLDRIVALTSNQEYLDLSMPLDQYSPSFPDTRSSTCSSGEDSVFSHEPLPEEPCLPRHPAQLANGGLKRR
HCK (human), sequence (P08631 whole entry, looked up): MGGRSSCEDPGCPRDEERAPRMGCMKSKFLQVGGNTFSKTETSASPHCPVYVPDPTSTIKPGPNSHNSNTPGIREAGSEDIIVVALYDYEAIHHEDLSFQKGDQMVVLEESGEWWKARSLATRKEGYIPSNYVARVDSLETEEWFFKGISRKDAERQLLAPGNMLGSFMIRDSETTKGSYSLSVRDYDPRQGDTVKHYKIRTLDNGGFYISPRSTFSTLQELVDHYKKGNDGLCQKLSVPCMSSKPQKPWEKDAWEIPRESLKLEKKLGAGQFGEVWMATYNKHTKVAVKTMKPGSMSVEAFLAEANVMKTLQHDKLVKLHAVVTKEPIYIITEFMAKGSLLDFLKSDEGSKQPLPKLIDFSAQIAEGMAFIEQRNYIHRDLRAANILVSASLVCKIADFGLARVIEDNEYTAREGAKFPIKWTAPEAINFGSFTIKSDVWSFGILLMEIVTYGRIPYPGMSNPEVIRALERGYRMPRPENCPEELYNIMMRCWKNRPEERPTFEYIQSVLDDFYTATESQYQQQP

OCCCNc1cc(-c2ccnc(Nc3cccc(Cl)c3)n2)ccn1
kinase still bound, per cent of control (CAMKK2 (human)): 100% | kinase still bound, per cent of control (CDK16 (human)): 1.9% | kinase still bound, per cent of control (HCK (human)): 100% | kinase still bound, per cent of control (CIT (human)): 100% | kinase still bound, per cent of control (FGFR1 (human)): 100% | kinase still bound, per cent of control (ERBB4 (human)): 100% | kinase still bound, per cent of control (MARK4 (human)): 100% | kinase still bound, per cent of control (LCK (human)): 100% | kinase still bound, per cent of control (IRAK3 (human)): 100% | kinase still bound, per cent of control (MAPK7 (human)): 100% | kinase still bound, per cent of control (TSSK1B (human)): 100% | kinase still bound, per cent of control (PTK6 (human)): 100% | kinase still bound, per cent of control (CHEK1 (human)): 100% | kinase still bound, per cent of control (FER (human)): 100% | kinase still bound, per cent of control (NEK1 (human)): 100% | kinase still bound, per cent of control (EPHA4 (human)): 100% | kinase still bound, per cent of control (TLK2 (human)): 100% | kinase still bound, per cent of control (RAF1 (human)): 100% | kinase still bound, per cent of control (ADCK4 (human)): 100% | kinase still bound, per cent of control (HIPK1 (human)): 4.6% | kinase still bound, per cent of control (CAMK2D (human)): 100% | kinase still bound, per cent of control (CSF1R (human)): 100% | kinase still bound, per cent of control [1]: 100% | kinase still bound, per cent of control (STK11 (human)): 100% | kinase still bound, per cent of control (PDGFRA (human)): 100% | kinase still bound, per cent of control (PRKACB (human)): 100% | kinase still bound, per cent of control (CLK2 (human)): 0.3% | kinase still bound, per cent of control (INSR (human)): 100% | kinase still bound, per cent of control (NEK6 (human)): 100% | kinase still bound, per cent of control (LIMK2 (human)): 100% | kinase still bound, per cent of control (PAK2 (human)): 100% | kinase still bound, per cent of control (MYLK (human)): 100% | kinase still bound, per cent of control (MINK1 (human)): 100% | kinase still bound, per cent of control (CAMK4 (human)): 100% | kinase still bound, per cent of control (ALK (human)): 100% | kinase still bound, per cent of control (PLK4 (human)): 100% | kinase still bound, per cent of control (MAP3K9 (human)): 100% | kinase still bound, per cent of control (MAP3K7 (human)): 100% | kinase still bound, per cent of control (MERTK (human)): 100% | kinase still bound, per cent of control (MAPK14 (human)): 100% | kinase still bound, per cent of control (CSNK1D (human)): 100%

O=C(NC1CC1)c1cccc(-c2ccc3c(NC(=O)C4CC4)n[nH]c3c2)c1
kinase still bound, per cent of control (CAMKK2 (human)): 94% | kinase still bound, per cent of control (CDK16 (human)): 5% | kinase still bound, per cent of control (HCK (human)): 100% | kinase still bound, per cent of control (CIT (human)): 89% | kinase still bound, per cent of control (FGFR1 (human)): 100% | kinase still bound, per cent of control (ERBB4 (human)): 95% | kinase still bound, per cent of control (MARK4 (human)): 96% | kinase still bound, per cent of control (LCK (human)): 100% | kinase still bound, per cent of control (IRAK3 (human)): 69% | kinase still bound, per cent of control (MAPK7 (human)): 93% | kinase still bound, per cent of control (TSSK1B (human)): 69% | kinase still bound, per cent of control (PTK6 (human)): 97% | kinase still bound, per cent of control (CHEK1 (human)): 100% | kinase still bound, per cent of control (FER (human)): 78% | kinase still bound, per cent of control (NEK1 (human)): 86% | kinase still bound, per cent of control (EPHA4 (human)): 100% | kinase still bound, per cent of control (TLK2 (human)): 79% | kinase still bound, per cent of control (RAF1 (human)): 78% | kinase still bound, per cent of control (ADCK4 (human)): 88% | kinase still bound, per cent of control (HIPK1 (human)): 28% | kinase still bound, per cent of control (CAMK2D (human)): 84% | kinase still bound, per cent of control (CSF1R (human)): 70% | kinase still bound, per cent of control [1]: 30% | kinase still bound, per cent of control (STK11 (human)): 45% | kinase still bound, per cent of control (PDGFRA (human)): 29% | kinase still bound, per cent of control (PRKACB (human)): 100% | kinase still bound, per cent of control (CLK2 (human)): 37% | kinase still bound, per cent of control (INSR (human)): 78% | kinase still bound, per cent of control (NEK6 (human)): 90% | kinase still bound, per cent of control (LIMK2 (human)): 98% | kinase still bound, per cent of control (PAK2 (human)): 69% | kinase still bound, per cent of control (MYLK (human)): 63% | kinase still bound, per cent of control (MINK1 (human)): 43% | kinase still bound, per cent of control (CAMK4 (human)): 100% | kinase still bound, per cent of control (ALK (human)): 100% | kinase still bound, per cent of control (PLK4 (human)): 13% | kinase still bound, per cent of control (MAP3K9 (human)): 66% | kinase still bound, per cent of control (MAP3K7 (human)): 56% | kinase still bound, per cent of control (MERTK (human)): 71% | kinase still bound, per cent of control (MAPK14 (human)): 2% | kinase still bound, per cent of control (CSNK1D (human)): 78%

CN(C)C/C=C/C(=O)Nc1cccc(Nc2ncc3c(n2)N(C)c2ccccc2C(=O)N3C)c1
kinase still bound, per cent of control (CAMKK2 (human)): 8.1% | kinase still bound, per cent of control (CDK16 (human)): 95% | kinase still bound, per cent of control (HCK (human)): 13% | kinase still bound, per cent of control (CIT (human)): 86% | kinase still bound, per cent of control (FGFR1 (human)): 3.5% | kinase still bound, per cent of control (ERBB4 (human)): 100% | kinase still bound, per cent of control (MARK4 (human)): 1.5% | kinase still bound, per cent of control (LCK (human)): 1.2% | kinase still bound, per cent of control (IRAK3 (human)): 44% | kinase still bound, per cent of control (MAPK7 (human)): 0.1% | kinase still bound, per cent of control (TSSK1B (human)): 53% | kinase still bound, per cent of control (PTK6 (human)): 37% | kinase still bound, per cent of control (CHEK1 (human)): 8.5% | kinase still bound, per cent of control (FER (human)): 100% | kinase still bound, per cent of control (NEK1 (human)): 69% | kinase still bound, per cent of control (EPHA4 (human)): 79% | kinase still bound, per cent of control (TLK2 (human)): 88% | kinase still bound, per cent of control (RAF1 (human)): 96% | kinase still bound, per cent of control (ADCK4 (human)): 100% | kinase still bound, per cent of control (HIPK1 (human)): 76% | kinase still bound, per cent of control (CAMK2D (human)): 62% | kinase still bound, per cent of control (CSF1R (human)): 0.1% | kinase still bound, per cent of control [1]: 9.4% | kinase still bound, per cent of control (STK11 (human)): 100% | kinase still bound, per cent of control (PDGFRA (human)): 100% | kinase still bound, per cent of control (PRKACB (human)): 100% | kinase still bound, per cent of control (CLK2 (human)): 41% | kinase still bound, per cent of control (INSR (human)): 100% | kinase still bound, per cent of control (NEK6 (human)): 73% | kinase still bound, per cent of control (LIMK2 (human)): 94% | kinase still bound, per cent of control (PAK2 (human)): 67% | kinase still bound, per cent of control (MYLK (human)): 69% | kinase still bound, per cent of control (MINK1 (human)): 29% | kinase still bound, per cent of control (CAMK4 (human)): 100% | kinase still bound, per cent of control (ALK (human)): 51% | kinase still bound, per cent of control (PLK4 (human)): 0% | kinase still bound, per cent of control (MAP3K9 (human)): 89% | kinase still bound, per cent of control (MAP3K7 (human)): 6.2% | kinase still bound, per cent of control (MERTK (human)): 46% | kinase still bound, per cent of control (MAPK14 (human)): 100% | kinase still bound, per cent of control (CSNK1D (human)): 52%
